Test results taken from patent publication US20120129781A1, “COMPOSITION COMPRISING ALPHA-LIPOIC ACID AND CARNOSINE FOR TREATING THE PHANTOM LIMB SYNDROME” (DIFASS INTERNATIONAL S.R.L., priority 2009, published 2012).

How the values were obtained:
[1] = test system: phantom limb pain; conditions: literature reports (Smith et al. 2005; Bergmans et al. 2002); cited from earlier work
[2] = test system: phantom limb syndrome; experiment: Two-month daily oral treatment of lower-limb amputee patients affected by phantom limb syndrome (ASIS, VAS, McGill Pain Questionnaire, QoL at t0, 30 and 60 days); format: in vivo; conditions: lower-limb amputees, daily oral uptake for two months, evaluated at t0, 30 and 60 days
From the text: In order not to negatively influence the test, it was decided not to include the following in such groups: diabetic patients (in order to avoid interferences with the symptoms of diabetic neuropathy and with the drugs used by the diabetic patient), subjects with psychiatric pathologies also at a compensation stage, subjects with serious cognitive deficits, subjects affected by active hepatic and/or renal pathologies, subjects with organ pathologies and/or other serious comorbidities.
Group A (reference) was subdivided into two uniform groups A1 and A2; group A1 was subjected to a conventional treatment, orally taking for two months a daily dosage amount of the neuromodulator Gabapentin, a known anti-epileptic drug with indications in the treatment of neuropathic pain, as described in US patent application publication No. US 2006/159743. Group A2 was subjected to the same treatment, substituting the neuromodulator Gabapentin with the analogous neuromodulator Pregabalin.
Groups B and C were subjected, during the same two-month period, to a daily uptake of the composition 1 and, respectively, 2 of the present invention, in the same daily dosage amount of 1,200 mg.
This text is aimed at investigating how an amputee perceives their own body image. It is constituted by 20 points; the subjects are asked to indicate their answer by using a scale from 1 (never) to 5 (always). […]

## CCC(=O)C(CC(C)N(C)C)(c1ccccc1)c1ccccc1 (stereo not drawn) [methadone]
[1]
  effect on phantom limb pain (literature): effective reduction of the phantom limb pain

## CC(C)C[C@H](CN)CC(=O)O [pregabalin]
[2]
  phantom limb pain and stump pain (VAS and McGill Pain Questionnaire): only experienced a certain decrease of the pain
  phantom limb sensation (sensation of possession of the missing limb, ASIS Amputee Body Image Scale): did not receive any benefit
